Data reported in ChEMBL document CHEMBL1201862, “PubChem BioAssay data set” (2004).
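Method: 48-hour compound exposure of cells in 96-well plates, five concentrations, linear interpolation of endpoints. GI50 is the concentration that inhibits growth by half.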 Activity calls are given as the source filed them. No stated cut-off is given here; in the data, active = GI50 up to about 1.1 µM and inactive = higher.

Columns and labels:
Test in all cases: inhibition of tumour cell growth, NCI panel, 48 h
HT-29 = tested on: HT-29
OVCAR-8 = tested on: OVCAR-8
SF-268 = tested on: SF-268
COLO 205 = tested on: COLO 205
HL-60 = tested on: HL-60
IGROV-1 = tested on: IGROV-1
HCT-15 = tested on: HCT-15
SN12C = tested on: SN12C
TK-10 = tested on: TK-10
UO-31 = tested on: UO-31
SK-MEL-2 = tested on: SK-MEL-2
EKVX = tested on: EKVX
M19-MEL = tested on: M19-MEL
M14 = tested on: M14
RXF 393 = tested on: RXF 393
UACC-62 = tested on: UACC-62
T47D = tested on: T47D
HOP-92 = tested on: HOP-92
MCF7 = tested on: MCF7
BT-549 = tested on: BT-549

| SMILES | GI50 (HT-29) | GI50 (OVCAR-8) | GI50 (SF-268) | GI50 (COLO 205) | GI50 (HL-60) | GI50 (IGROV-1) | GI50 (HCT-15) | GI50 (SN12C) | GI50 (TK-10) | GI50 (UO-31) | GI50 (SK-MEL-2) | GI50 (EKVX) | GI50 (M19-MEL) | GI50 (M14) | GI50 (RXF 393) | GI50 (UACC-62) | GI50 (T47D) | GI50 (HOP-92) | GI50 (MCF7) | GI50 (BT-549) |
| --- | --- | --- | --- | --- | --- | --- | --- | --- | --- | --- | --- | --- | --- | --- | --- | --- | --- | --- | --- | --- |
| COC(=O)C(CCCC1(c2ccccc2)OCCO1)C(C)=O (configuration not stated) | > 100 µM (inactive) | > 100 µM (inactive) | > 100 µM (inactive) | > 100 µM (inactive) | > 100 µM (inactive) | > 100 µM (inactive) | > 100 µM | > 100 µM (inactive) | > 100 µM (inactive) | > 100 µM (inactive) | > 100 µM (inactive) | > 100 µM (inactive) | > 100 µM (inactive) | > 100 µM (inactive) | > 100 µM (inactive) | – | – | – | – | – |
| CC1=NN=C(NCCN(C)C)C/C1=C/c1ccccc1Cl | 45.1 µM (inactive) | > 100 µM (inactive) | > 100 µM (inactive) | > 100 µM (inactive) | – | > 100 µM (inactive) | > 100 µM | > 100 µM (inactive) | > 100 µM (inactive) | > 100 µM (inactive) | > 100 µM (inactive) | > 100 µM (inactive) | > 100 µM (inactive) | 39.4 µM (inactive) | 95.1 µM (inactive) | > 100 µM (inactive) | – | – | – | – |
| COC(=O)c1c(C)[nH]c2c1C(=O)C(=O)c1nc(C)c(C)nc1-2 | 14 µM (inactive) | 10.2 µM (inactive) | 9.53 µM (inactive) | 8.63 µM (inactive) | 9.23 µM (inactive) | 3.41 µM (inactive) | 9.98 µM | 2.84 µM (inactive) | 3.6 µM (inactive) | 10.1 µM (inactive) | 3.86 µM (inactive) | 8.69 µM (inactive) | – | 10.7 µM (inactive) | 1.98 µM (inactive) | 4.41 µM (inactive) | 0.162 µM (active) | 5.79 µM (inactive) | 7.48 µM (inactive) | 10.9 µM (inactive) |
| CCOC(=O)c1ncn2c1[nH]c(=O)c1ccccc12 | > 100 µM (inactive) | > 100 µM (inactive) | > 100 µM (inactive) | > 100 µM (inactive) | > 10 µM (inactive) | > 100 µM (inactive) | > 100 µM | > 100 µM (inactive) | > 100 µM (inactive) | > 100 µM (inactive) | > 100 µM (inactive) | > 100 µM (inactive) | > 100 µM (inactive) | > 100 µM (inactive) | > 100 µM (inactive) | > 100 µM (inactive) | – | – | – | – |
| COc1ccc(/C=N/c2c(O)ccc3ccccc23)cc1OC | 98.9 µM (inactive) | > 100 µM (inactive) | 19.4 µM (inactive) | 33 µM (inactive) | 22.1 µM (inactive) | 2.81 µM (inactive) | > 100 µM | > 100 µM (inactive) | > 100 µM (inactive) | > 100 µM (inactive) | > 100 µM (inactive) | > 100 µM (inactive) | – | 74.5 µM (inactive) | 69.3 µM (inactive) | 72.6 µM (inactive) | 84.5 µM (inactive) | 1.95 µM (inactive) | > 100 µM (inactive) | 89.3 µM (inactive) |
| CC(Oc1cc2oc(=O)cc(-c3ccccc3)c2cc1Cl)C(=O)O (configuration not stated) | > 100 µM (inactive) | > 100 µM (inactive) | > 100 µM (inactive) | > 100 µM (inactive) | > 100 µM (inactive) | > 100 µM (inactive) | – | > 100 µM (inactive) | > 100 µM (inactive) | > 100 µM (inactive) | – | > 100 µM (inactive) | > 100 µM (inactive) | > 100 µM (inactive) | > 100 µM (inactive) | > 100 µM (inactive) | – | > 100 µM (inactive) | – | – |
| C=C1C(=O)O[C@H]2C[C@@]3(C)[C@H](O)CCC(=C)[C@@H]3[C@@H](OC(C)=O)[C@H]12 | 5.92 µM (inactive) | 18.7 µM (inactive) | 19.2 µM (inactive) | 0.953 µM (active) | 2.19 µM (inactive) | 14.1 µM (inactive) | 1.85 µM | 7.83 µM (inactive) | 6.15 µM (inactive) | 13.5 µM (inactive) | 15.9 µM (inactive) | 15.5 µM (inactive) | – | 5.9 µM (inactive) | 3.56 µM (inactive) | 15.9 µM (inactive) | 4.65 µM (inactive) | 2.71 µM (inactive) | 1.51 µM (inactive) | 7.33 µM (inactive) |
| CN1CCc2cc3c(c4c2C1C(O)c1ccccc1-4)OCO3 (configuration not stated) | 3.5 µM (inactive) | 7.53 µM (inactive) | 6.3 µM (inactive) | 4.95 µM (inactive) | 2.23 µM (inactive) | 6.61 µM (inactive) | 3.59 µM | 3.03 µM (inactive) | 14.2 µM (inactive) | 6.1 µM (inactive) | 9.59 µM (inactive) | 7.83 µM (inactive) | – | 5.12 µM (inactive) | 2.52 µM (inactive) | 8.22 µM (inactive) | 13 µM (inactive) | 2.16 µM (inactive) | 4.31 µM (inactive) | 3.86 µM (inactive) |
